Reference: patent US9890138B2, “Diaminopyrimidine derivatives and processes for the preparation thereof” (YUHAN CORPORATION, priority 2011, dated 2018)
Structures can show the parent of a compound that is named as a salt.

molecular target: T1, human 5-HT4(a) (Homo sapiens, UniProt Q13639); experiment: Evaluation of agonistic activity in CHO-K1 cells expressing human 5-HT4(a) (GeneBlAzer HTR4-CRE-bla CHO-K1, beta-lactamase reporter); type: cell-based; settings: CHO-K1 cells stably expressing human 5-HT4(a)
T1 construct: host or cells: GeneBlAzer HTR4-CRE-bla CHO-K1 cells
Procedure, shortened: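 Agonism read as CRE-driven β-lactamase activity: emission ratio 465/535 nm (excitation 410 nm) after 2 h substrate loading. Preceded by 5 h compound treatment, 8 concentrations, 1% DMSO in the added solution, of overnight-plated reporter CHO-K1 cells; EC50 by non-linear regression.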

T1 sequence (Q13639 1-387 isoform Q13639-2): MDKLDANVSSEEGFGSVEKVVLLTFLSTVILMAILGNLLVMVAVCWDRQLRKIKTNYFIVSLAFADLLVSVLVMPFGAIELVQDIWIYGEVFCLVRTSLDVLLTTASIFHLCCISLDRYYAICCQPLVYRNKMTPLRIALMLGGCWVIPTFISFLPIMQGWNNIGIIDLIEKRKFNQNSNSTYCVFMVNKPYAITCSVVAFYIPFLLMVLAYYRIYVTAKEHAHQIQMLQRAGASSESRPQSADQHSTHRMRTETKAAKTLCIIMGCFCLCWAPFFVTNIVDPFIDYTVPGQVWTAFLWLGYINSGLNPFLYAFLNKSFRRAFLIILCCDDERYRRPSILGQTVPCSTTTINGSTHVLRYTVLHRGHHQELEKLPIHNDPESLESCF

EC50 [nM]	SMILES
0.15	CCCc1cc(N2CCC[C@H]2C)nc(Nc2ccc(F)c(C(F)(F)F)c2)n1 [Example 322]
0.085	CCCc1cc(N2CCC[C@H]2C)nc(Nc2ccc(F)c(C#N)c2)n1 [Example 325]
0.025	CCCc1cc(N2CCC[C@H]2C)nc(Nc2ccc(N)c(C#N)c2)n1 [Example 327]
0.017	CCCc1cc(N2CCC[C@H]2C)nc(Nc2ccc(N)c([N+](=O)[O-])c2)n1 [Example 328, (R)—N^1-[4-(2-methylpyrrolidin-1-yl)-6-propylpyrimidin-2-yl]-3-nitrobenzene-1,4-diamine]
0.138	CCCc1cc(N2CCC[C@H]2C)nc(Nc2ccc(OC)c(N)c2)n1 [Example 331]
0.046	CCCc1cc(N2CCC[C@H]2C)nc(Nc2ccc(Cl)c(N)c2)n1 [Example 332]
0.024	CCCc1cc(N2CCC[C@H]2C)nc(Nc2ccc(F)c(N)c2)n1 [Example 333]
0.0032	CCCCc1cc(N2CC[C@H](NC)C2)nc(Nc2ccc(N)c([N+](=O)[O-])c2)n1 [Example 338]
0.0092	CCCc1cc(N2CC[C@H](N)C2)nc(Nc2ccc(Cl)c([N+](=O)[O-])c2)n1 [Example 344, (S)-4-(3-aminopyrrolidin-1-yl)-N-(4-chloro-3-nitrophenyl)-6-propylpyrimidin-2-amine dihydrochloride]
0.016	CCCc1cc(N2CC[C@H](N)C2)nc(Nc2ccc(C)c(Cl)c2)n1 [Example 349, (S)-4-(3-aminopyrrolidin-1-yl)-N-(3-chloro-4-methylphenyl)-6-propylpyrimidin-2-amine dihydrochloride]
0.01	CCCc1cc(N2CC[C@H](N)C2)nc(Nc2ccc(F)c(C#N)c2)n1 [Example 353, (S)-5-[4-(3-aminopyrrolidin-1-yl)-6-propylpyrimidin-2-ylamino]-2-fluorobenzonitrile dihydrochloride]
0.003	CCCc1cc(N2CC[C@H](N)C2)nc(Nc2ccc(C)c(C#N)c2)n1 [Example 354, (S)-5-[4-(3-aminopyrrolidin-1-yl)-6-propylpyrimidin-2-ylamino]-2-methylbenzonitrile dihydrochloride]
0.0065	CCCc1cc(N2CC[C@H](N)C2)nc(Nc2ccc(F)c(C(F)(F)F)c2)n1 [Example 357, (S)-4-(3-aminopyrrolidin-1-yl)-N-[4-fluoro-3-(trifluoromethyl)phenyl]-6-propylpyrimidin-2-amine dihydrochloride]
0.122	CCCc1cc(N2CCC[C@H]2COC)nc(Nc2cccc(N)c2)n1 [Example 364]
0.027	CCCc1cc(N2CCC[C@H]2COC)nc(Nc2ccc(F)c(N)c2)n1 [Example 365]
0.078	CCCc1cc(N2CCC[C@H]2COC)nc(Nc2ccc(C)c(N)c2)n1 [Example 366]
0.153	CCCc1cc(N2CCC[C@H]2COC)nc(Nc2ccc(OC)c(N)c2)n1 [Example 367, (S)-4-methoxy-N^1-{4-[2-(methoxymethyl)pyrrolidin-1-yl]-6-propylpyrimidin-2-yl}benzene-1,3-diamine]
0.182	CCCc1cc(N2CCC[C@H]2COC)nc(Nc2ccc3c(c2)NCC3)n1 [Example 368]
0.0046	CCCc1cc(N2CC[C@H](NCC3CC3)C2)nc(Nc2ccc(Cl)c([N+](=O)[O-])c2)n1 [Example 372]
0.0037	CCCc1cc(N2CC[C@H](NCC3CC3)C2)nc(Nc2ccc(F)c(C#N)c2)n1 [Example 376, (S)-5-{4-[3-(cyclopropylmethylamino)pyrrolidin-1-yl]-6-propylpyrimidin-2-ylamino}-2-fluorobenzonitrile]
0.0051	CCCc1cc(N2CC[C@H](NCC3CC3)C2)nc(Nc2ccc(F)c(C(F)(F)F)c2)n1 [Example 382]
0.0057	CCCc1cc(N2CC[C@H](NCC3CC3)C2)nc(Nc2ccc(C)c(N)c2)n1 [Example 383]
0.007	CCCc1cc(N2CCC(NCC3CC3)C2)nc(Nc2cccc(C#N)c2)n1 (stereo not drawn) [Example 387, 3-{4-[3-(cyclopropylmethylamino)pyrrolidin-1-yl]-6-propylpyrimidin-2-ylamino}benzonitrile dihydrochloride]
0.082	CCCc1cc(N2CC[C@H](NC(=O)CN)C2)nc(Nc2cccc(C#N)c2)n1 [Example 395]
0.033	CCCc1cc(N2CCC[C@H]2CO)nc(Nc2ccc(F)c(N)c2)n1 [Example 400]

The next lines start with the compound.

SMILES	EC50 [nM]
CCCc1cc(N2CCC[C@H]2C)nc(Nc2ccc(N)c(C(F)(F)F)c2)n1 [Example 323, (R)—N^1-[4-(2-methylpyrrolidin-1-yl)-6-propylpyrimidin-2-yl]-3-(trifluoromethyl)benzene-1,4-diamine]	0.027
CCCc1cc(N2CCC[C@H]2C)nc(Nc2ccc(C)c(C#N)c2)n1 [Example 326]	0.028
CCCc1cc(N2CCC[C@H]2C)nc(Nc2ccc3c(c2)N(C(C)=O)CC3)n1 [Example 329]	0.18
CCCc1cc(N2CCC[C@H]2C)nc(Nc2ccc(C)c(N)c2)n1 [Example 334]	0.085
CCCCc1cc(N2CC[C@H](NC(C)=O)C2)nc(Nc2ccc(N)c([N+](=O)[O-])c2)n1 [Example 337]	0.0026
CCCc1cc(N2CC[C@H](N)C2)nc(Nc2cc(N)cc(C(F)(F)F)c2)n1 [Example 342]	0.0055
CCCc1cc(N2CC[C@H](N)C2)nc(Nc2cccc(SC)c2)n1 [Example 345, (S)-4-(3-aminopyrrolidin-1-yl)-N-[3-(methylthio)phenyl]-6-propylpyrimidin-2-amine dihydrochloride]	0.062
CCCc1cc(N2CC[C@H](N)C2)nc(Nc2ccc3cc[nH]c3c2)n1 [Example 346]	0.014
CCCc1cc(N2CC[C@H](N)C2)nc(Nc2cccc(C(F)(F)F)c2)n1 [Example 347, (S)-4-(3-aminopyrrolidin-1-yl)-6-propyl-N-[3-(trifluoromethyl)phenyl]pyrimidin-2-amine dihydrochloride]	0.03
CCCc1cc(N2CC[C@H](N)C2)nc(Nc2cc(Cl)ccc2C)n1 [Example 348, (S)-4-(3-aminopyrrolidin-1-yl)-N-(5-chloro-2-methylphenyl)-6-propylpyrimidin-2-amine dihydrochloride]	0.019
CCCc1cc(N2CC[C@H](N)C2)nc(Nc2cccc([N+](=O)[O-])c2)n1 [Example 350, (S)-4-(3-aminopyrrolidin-1-yl)-N-(3-nitrophenyl)-6-propylpyrimidin-2-amine dihydrochloride]	0.012
CCCc1cc(N2CC[C@H](N)C2)nc(Nc2ccc(C)c([N+](=O)[O-])c2)n1 [Example 351, (S)-4-(3-aminopyrrolidin-1-yl)-N-(4-methyl-3-nitrophenyl)-6-propylpyrimidin-2-amine dihydrochloride]	0.0035
CCCc1cc(N2CC[C@H](N)C2)nc(Nc2ccc(N)c(C(F)(F)F)c2)n1 [Example 352]	0.0027
CCCc1cc(N2CC[C@H](N)C2)nc(Nc2ccc(N)c(C#N)c2)n1 [Example 355]	0.007
CCCc1cc(N2CC[C@H](N)C2)nc(Nc2ccc(F)c([N+](=O)[O-])c2)n1 [Example 358, (S)-4-(3-aminopyrrolidin-1-yl)-N-(4-fluoro-3-nitrophenyl)-6-propylpyrimidin-2-amine dihydrochloride]	0.014
CCCc1cc(N2CC[C@H](N)C2)nc(Nc2ccc(N)c([N+](=O)[O-])c2)n1 [Example 359]	0.0021

SMILES	EC50 [nM]
CCCc1cc(N2CC[C@H](N)C2)nc(Nc2ccc(C)c(N)c2)n1 [Example 369]	0.049
CCCc1cc(N2CC[C@H](N)C2)nc(Nc2ccc(F)c(N)c2)n1 [Example 370, (S)—N^1-[4-(3-aminopyrrolidin-1-yl)-6-propylpyrimidin-2-yl]-4-fluorobenzene-1,3-diamine dihydrochloride]	0.015
CCCc1cc(N2CC[C@H](NCC3CC3)C2)nc(Nc2ccc(F)c([N+](=O)[O-])c2)n1 [Example 373]	0.0043
CCCc1cc(N2CC[C@H](NCC3CC3)C2)nc(Nc2ccc(C)c([N+](=O)[O-])c2)n1 [Example 374, (S)-4-[3-(cyclopropylmethylamino)pyrrolidin-1-yl]-N-(4-methyl-3-nitrophenyl)-6-propylpyrimidin-2-amine]	0.0027
CCCc1cc(N2CC[C@H](NCC3CC3)C2)nc(Nc2cccc([N+](=O)[O-])c2)n1 [Example 375, (S)-4-[3-(cyclopropylmethylamino)pyrrolidin-1-yl]-N-(3-nitrophenyl)-6-propylpyrimidin-2-amine]	0.0033
CCCc1cc(N2CC[C@H](NCC3CC3)C2)nc(Nc2ccc(C)c(C#N)c2)n1 [Example 377, (S)-5-{4-[3-(cyclopropylmethylamino)pyrrolidin-1-yl]-6-propylpyrimidin-2-ylamino}-2-methylbenzonitrile]	0.0013
CCCc1cc(N2CC[C@H](NCC3CC3)C2)nc(Nc2cccc(SC)c2)n1 [Example 378]	0.015
CCCc1cc(N2CC[C@H](NCC3CC3)C2)nc(Nc2cccc(C(F)(F)F)c2)n1 [Example 379]	0.0098
CCCc1cc(N2CC[C@H](NCC3CC3)C2)nc(Nc2cc(Cl)ccc2C)n1 [Example 380]	0.009
CCCc1cc(N2CC[C@H](NCC3CC3)C2)nc(Nc2ccc(C)c(Cl)c2)n1 [Example 381]	0.0043
CCCc1cc(N2CC[C@H](NCC3CC3)C2)nc(Nc2cccc(N)c2)n1 [Example 384]	0.077
CCCc1cc(N2CCC[C@H]2CO)nc(Nc2ccc(C)c(N)c2)n1 [Example 399]	0.13
CCCc1cc(N2CCC[C@H]2CO)nc(Nc2ccc(Cl)c(N)c2)n1 [Example 401]	0.073
CCCc1cc(N2CCC[C@H]2C=O)nc(Nc2cccc(C#N)c2)n1 [Example 402, (S)-3-[4-(2-formylpyrrolidin-1-yl)-6-propylpyrimidin-2-ylamino]benzonitrile]	0.236
CCCc1cc(N2CCC[C@H]2CNC)nc(Nc2cccc(C#N)c2)n1 [Example 403]	0.414
CCCc1cc(N2CCC[C@H]2CNCc2ccc(F)cc2)nc(Nc2cccc(C#N)c2)n1 [Example 405]	0.399
